# Source: publication PMC7413254 (Nature Communications, 2020)
# Legend:
# non-expressing oocytes = assay: cells; format: cell-based, Xenopus laevis
# Summary of the method: (§1)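 Oocytes expressing PfCRT isoforms, or non-expressing controls, were incubated 1.5 h at 27.5 °C in ND96 buffer pH 5.5 (96 mM NaCl, 2 mM KCl, 1 mM MgCl2, 1.8 mM CaCl2, 10 mM MES, 10 mM Tris-base), measuring uptake from acidic medium into cytosol. Oocytes were washed ice-cold, SDS-lysed and counted by scintillation.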
# PfCRT^Dd2 [1] = molecular target: T1, PfCRT^Dd2 (Plasmodium falciparum, UniProt Q9N623, A220S/I356T/K76T/M74I/N326S/N75E/Q271E/R371I); assay: [3H]CQ uptake into Xenopus oocytes, cis-inhibition by unlabelled solute; format: cell-based; settings: PfCRTEcu1110 and PfCRTDd2
# Summary of the method: as §1
# PfCRT^3D7 = PfCRT^3D7 (Plasmodium falciparum, UniProt Q8IBZ9); assay: cell-based; format: cell-based; settings: for [3H]CQ transport, PfCRT3D7 (% PfCRT3D7 control): trans-stimulation, solute 45 mM injected (estimated intracellular)
# Summary of the method: (§2)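 Transport measured in Xenopus oocytes expressing the transporters, 1.5 h at 27.5 °C in ND96 pH 5.5 unless noted. For trans-stimulation, VF-6 injected in 25 nL ND96 at pH 5.0–7.0 or Na^+-free (choline) buffer; intracellular levels based on ~400 nL oocyte volume. Ten oocytes per treatment, ≥4 experiments.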
# PfCRT^Dd2 [2] = molecular target: T1, PfCRT^Dd2; assay: cell-based; format: cell-based; settings: PfCRTDd2; mean ± SEM, n = 5; SEM
# Summary of the method: as §2
# PfCRT^Ecu1110 = PfCRT^Ecu1110 (Plasmodium falciparum, UniProt Q9N623, A220S/I356L/K76T/N326D); assay: cell-based; format: cell-based; settings: PfCRTEcu1110; mean ± SEM, n = 5; SEM
# Summary of the method: as §2
# PfNT1 = molecular target: T2, PfNT1 (Plasmodium falciparum, UniProt Q8IDM6); assay: cell-based; format: cell-based; settings: trans-stimulation, solute 45 mM injected (estimated intracellular)
# T2 construct: expressed in transfected cells; host or cells: Xenopus laevis oocytes (stage V-VI), cRNA-injected
# Summary of the method: as §2
# PfCRT^3D7, sequence (Q8IBZ9 59-398): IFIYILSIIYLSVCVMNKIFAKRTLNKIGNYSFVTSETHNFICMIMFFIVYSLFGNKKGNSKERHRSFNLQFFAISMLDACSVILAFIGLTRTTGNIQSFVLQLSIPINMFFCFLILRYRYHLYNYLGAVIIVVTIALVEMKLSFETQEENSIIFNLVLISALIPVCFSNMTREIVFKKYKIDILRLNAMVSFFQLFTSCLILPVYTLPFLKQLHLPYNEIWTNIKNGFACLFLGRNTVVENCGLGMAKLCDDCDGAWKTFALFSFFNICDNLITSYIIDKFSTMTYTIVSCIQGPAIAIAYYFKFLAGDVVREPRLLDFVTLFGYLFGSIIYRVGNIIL
# T2 sequence (Q8IDM6 whole entry): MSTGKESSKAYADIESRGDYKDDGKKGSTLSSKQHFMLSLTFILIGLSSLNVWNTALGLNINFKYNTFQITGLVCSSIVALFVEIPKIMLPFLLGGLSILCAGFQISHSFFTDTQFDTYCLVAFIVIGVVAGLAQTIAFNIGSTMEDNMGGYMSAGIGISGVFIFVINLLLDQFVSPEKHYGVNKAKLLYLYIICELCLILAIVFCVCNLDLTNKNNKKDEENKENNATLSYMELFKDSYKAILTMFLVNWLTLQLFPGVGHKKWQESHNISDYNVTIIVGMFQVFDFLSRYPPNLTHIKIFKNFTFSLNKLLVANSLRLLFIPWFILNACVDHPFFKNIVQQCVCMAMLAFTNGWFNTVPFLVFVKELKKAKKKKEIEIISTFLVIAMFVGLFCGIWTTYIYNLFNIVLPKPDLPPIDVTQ
# T1 sequence (Q9N623 whole entry A220S/I356T/K76T/M74I/N326S/N75E/Q271E/R371I): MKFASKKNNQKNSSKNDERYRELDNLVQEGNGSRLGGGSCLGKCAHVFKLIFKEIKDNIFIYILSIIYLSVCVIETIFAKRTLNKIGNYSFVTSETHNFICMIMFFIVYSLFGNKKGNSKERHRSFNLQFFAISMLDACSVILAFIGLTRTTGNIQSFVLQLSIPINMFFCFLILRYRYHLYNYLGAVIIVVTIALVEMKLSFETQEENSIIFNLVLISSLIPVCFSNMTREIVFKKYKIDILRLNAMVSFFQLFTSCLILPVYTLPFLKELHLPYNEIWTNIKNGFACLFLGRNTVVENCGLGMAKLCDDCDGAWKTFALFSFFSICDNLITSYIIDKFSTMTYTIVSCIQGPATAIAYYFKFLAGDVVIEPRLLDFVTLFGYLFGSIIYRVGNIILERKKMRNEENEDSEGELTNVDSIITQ
# PfCRT^Ecu1110, sequence (Q9N623 whole entry A220S/I356L/K76T/N326D): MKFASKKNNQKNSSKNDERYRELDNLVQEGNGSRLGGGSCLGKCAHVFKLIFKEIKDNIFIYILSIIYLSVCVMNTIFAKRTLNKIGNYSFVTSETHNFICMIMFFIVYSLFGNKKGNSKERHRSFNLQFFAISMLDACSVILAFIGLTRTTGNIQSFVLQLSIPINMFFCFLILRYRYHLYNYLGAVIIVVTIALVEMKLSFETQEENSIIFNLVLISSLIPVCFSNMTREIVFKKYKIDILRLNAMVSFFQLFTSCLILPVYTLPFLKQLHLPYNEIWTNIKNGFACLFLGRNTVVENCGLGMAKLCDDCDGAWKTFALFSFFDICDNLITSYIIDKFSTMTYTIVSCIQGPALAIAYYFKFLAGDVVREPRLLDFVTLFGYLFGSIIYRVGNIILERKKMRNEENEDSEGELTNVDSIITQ
smiles,measurement,setting,value
"CCN(CC)CCCC(C)Nc1ccnc2cc(Cl)ccc12 (stereo not shown) [CQ, chloroquine, reference compound]","[3H]CQ transport, non-expressing oocytes","non-expressing oocytes; 0 mM Ca2+, Experiment 1",3.74 % PfCRTDd2 control
same,"[3H]CQ transport, non-expressing oocytes","non-expressing oocytes; 0 mM Ca2+, Experiment 2",3.63 % PfCRTDd2 control
same,"[3H]CQ transport, non-expressing oocytes","non-expressing oocytes; 0 mM Ca2+, Experiment 3",4.25 % PfCRTDd2 control
same,"[3H]CQ transport, non-expressing oocytes","non-expressing oocytes; 0 mM Ca2+, Experiment 4",3.26 % PfCRTDd2 control
same,"[3H]CQ transport, non-expressing oocytes","non-expressing oocytes; 0 mM Cl-, Experiment 1",4.15 % PfCRTDd2 control
same,"[3H]CQ transport, non-expressing oocytes","non-expressing oocytes; 0 mM Cl-, Experiment 2",3.26 % PfCRTDd2 control
same,"[3H]CQ transport, non-expressing oocytes","non-expressing oocytes; 0 mM Cl-, Experiment 3",3.11 % PfCRTDd2 control
same,"[3H]CQ transport, non-expressing oocytes","non-expressing oocytes; 0 mM Cl-, Experiment 4",3.85 % PfCRTDd2 control
same,"[3H]CQ transport, non-expressing oocytes","non-expressing oocytes; 0 mM Na+, Experiment 1",3.84 % PfCRTDd2 control
same,"[3H]CQ transport, non-expressing oocytes","non-expressing oocytes; 0 mM Na+, Experiment 2",3.27 % PfCRTDd2 control
same,"[3H]CQ transport, non-expressing oocytes","non-expressing oocytes; 0 mM Na+, Experiment 3",3.36 % PfCRTDd2 control
same,"[3H]CQ transport, non-expressing oocytes","non-expressing oocytes; 0 mM Na+, Experiment 4",3.51 % PfCRTDd2 control
same,"[3H]CQ transport, non-expressing oocytes","non-expressing oocytes; 1 mM Ca2+, Experiment 1",3.79 % PfCRTDd2 control
same,"[3H]CQ transport, non-expressing oocytes","non-expressing oocytes; 1 mM Ca2+, Experiment 2",4.21 % PfCRTDd2 control
same,"[3H]CQ transport, non-expressing oocytes","non-expressing oocytes; 1 mM Ca2+, Experiment 3",3.27 % PfCRTDd2 control
same,"[3H]CQ transport, non-expressing oocytes","non-expressing oocytes; 1 mM Ca2+, Experiment 4",3.32 % PfCRTDd2 control
same,"[3H]CQ transport, non-expressing oocytes","non-expressing oocytes; 3 mM Ca2+, Experiment 1",3.39 % PfCRTDd2 control
same,"[3H]CQ transport, non-expressing oocytes","non-expressing oocytes; 3 mM Ca2+, Experiment 2",3.63 % PfCRTDd2 control
same,"[3H]CQ transport, non-expressing oocytes","non-expressing oocytes; 3 mM Ca2+, Experiment 3",3.89 % PfCRTDd2 control
same,"[3H]CQ transport, non-expressing oocytes","non-expressing oocytes; 3 mM Ca2+, Experiment 4",3.96 % PfCRTDd2 control
same,"[3H]CQ transport, non-expressing oocytes","non-expressing oocytes; 5 mM Ca2+, Experiment 1",3.68 % PfCRTDd2 control
same,"[3H]CQ transport, non-expressing oocytes","non-expressing oocytes; 5 mM Ca2+, Experiment 2",3.26 % PfCRTDd2 control
same,"[3H]CQ transport, non-expressing oocytes","non-expressing oocytes; 5 mM Ca2+, Experiment 3",3.94 % PfCRTDd2 control
same,"[3H]CQ transport, non-expressing oocytes","non-expressing oocytes; 5 mM Ca2+, Experiment 4",3.67 % PfCRTDd2 control
same,"[3H]CQ transport, non-expressing oocytes","non-expressing oocytes; Control, Experiment 1, Supp Fig. 2b",3.53 % PfCRTDd2 control
same,"[3H]CQ transport, non-expressing oocytes","non-expressing oocytes; Control, Experiment 1, Supp Fig. 2f",3.93 % PfCRTDd2 control
same,"[3H]CQ transport, non-expressing oocytes","non-expressing oocytes; Control, Experiment 1, Supp Fig. 2d",3.52 % PfCRTDd2 control
same,"[3H]CQ transport, non-expressing oocytes","non-expressing oocytes; Control, Experiment 2, Supp Fig. 2b",3.62 % PfCRTDd2 control
same,"[3H]CQ transport, non-expressing oocytes","non-expressing oocytes; Control, Experiment 2, Supp Fig. 2f",3.26 % PfCRTDd2 control
same,"[3H]CQ transport, non-expressing oocytes","non-expressing oocytes; Control, Experiment 2, Supp Fig. 2d",3.16 % PfCRTDd2 control
same,"[3H]CQ transport, non-expressing oocytes","non-expressing oocytes; Control, Experiment 3, Supp Fig. 2b",3.28 % PfCRTDd2 control
same,"[3H]CQ transport, non-expressing oocytes","non-expressing oocytes; Control, Experiment 3, Supp Fig. 2f",3.29 % PfCRTDd2 control
same,"[3H]CQ transport, non-expressing oocytes","non-expressing oocytes; Control, Experiment 3, Supp Fig. 2d",3.75 % PfCRTDd2 control
same,"[3H]CQ transport, non-expressing oocytes","non-expressing oocytes; Control, Experiment 4, Supp Fig. 2b",3.81 % PfCRTDd2 control
same,"[3H]CQ transport, non-expressing oocytes","non-expressing oocytes; Control, Experiment 4, Supp Fig. 2f",4.38 % PfCRTDd2 control
same,"[3H]CQ transport, non-expressing oocytes","non-expressing oocytes; Control, Experiment 4, Supp Fig. 2d",3.21 % PfCRTDd2 control
"CC(C)(C)NC(=O)[C@@H]1C[C@@H]2CCCC[C@@H]2CN1C[C@@H](O)[C@H](Cc1ccccc1)NC(=O)[C@H](CC(N)=O)NC(=O)c1ccc2ccccc2n1 [Saquinavir, saquinavir, reference compound]",Cis-inhibition of [3H]CQ transport (in words),PfCRT^Dd2 [1],cis-inhibited
same,App Vmax for the trans-stimulatory effect of the peptide mimic on [3H]CQ transport,"PfCRT^3D7; PfCRT3D7, mean ± SEM, n = 5, SEM",2.2 ±0.5 pmol/oocyte/h
same,Trans-stimulation of [3H]CQ transport via PfCRT (in words),PfCRT^3D7; PfCRT isoforms as stated in the sentence,trans-stimulated
same,"[3H]CQ transport, PfCRT3D7 (% PfCRT3D7 control)",PfCRT^3D7; Experiment 1,157.43 % PfCRT3D7 control
same,"[3H]CQ transport, PfCRT3D7 (% PfCRT3D7 control)",PfCRT^3D7; Experiment 2,162.15 % PfCRT3D7 control
same,"[3H]CQ transport, PfCRT3D7 (% PfCRT3D7 control)",PfCRT^3D7; Experiment 3,143.46 % PfCRT3D7 control
same,"[3H]CQ transport, PfCRT3D7 (% PfCRT3D7 control)",PfCRT^3D7; Experiment 4,158.34 % PfCRT3D7 control
same,App Vmax for the trans-stimulatory effect of the peptide mimic on [3H]CQ transport,PfCRT^Dd2 [2],0.8 ±0.05 pmol/oocyte/h
same,App Vmax for the trans-stimulatory effect of the peptide mimic on [3H]CQ transport,PfCRT^Ecu1110,1.6 ±0.2 pmol/oocyte/h
same,"[3H]CQ transport, PfNT1 (% PfCRTDd2 control)",PfNT1; Experiment 1,2.62 % PfCRTDd2 control
same,"[3H]CQ transport, PfNT1 (% PfCRTDd2 control)",PfNT1; Experiment 2,2.47 % PfCRTDd2 control
same,"[3H]CQ transport, PfNT1 (% PfCRTDd2 control)",PfNT1; Experiment 3,2.54 % PfCRTDd2 control
same,"[3H]CQ transport, PfNT1 (% PfCRTDd2 control)",PfNT1; Experiment 4,2.32 % PfCRTDd2 control
